Assay results reported in patent US20260215418A1, “HYDROCARBON ALCOHOLS AND THEIR DERIVATIVES AS SYNERGISTS IN PESTICIDE ACTIVITY” (priority 2022, published 2026).
Where “and” joins values, the source holds several entries; their conditions need not be identical. Equal values may be shown once. Read-outs that look alike come from different tables or passages of the source.

Legend:
[1] = tested on: Musca domestica L.; experiment: Contact test on non-porous tile, Musca domestica; assay type: in vivo; parameters: Mortality %: concentration or dose not given beside the values; details: for mortality at 680 µg/mL: 0.68 mg/ml; for Mortality %: insects on treated tile
Protocol: 1 ml of Composition 1 was applied to the tile. […] 1 ml of Composition 8a was distributed on the tile. […] 1 ml of Composition 8a was distributed on a tile. […] At the end of the 30 minutes, the flies were transferred to an untreated area.
1 ml of Composition 3 was applied to the tile. […] 1 ml of Composition 8c was distributed on the tile. […] 1 ml of Composition 8c was distributed on a tile. […] At the end of the 30 minutes, the flies were transferred to an untreated area.
1 ml of Composition 9a was distributed on the tile. […] 1 ml of Composition 9a was distributed on a tile. […] At the end of the 30 minutes, the flies were transferred to an untreated area. […] 1 ml of Composition 10a was distributed on the tile. […] 1 ml of Composition 10a was distributed on a tile. […] At the end of the 30 minutes, the flies were transferred to an untreated area. […] 1 ml of Composition 8c was distributed on the tile. […] 1 ml of Composition 8c was distributed on a tile. […] At the end of the 30 minutes, the flies were transferred to an untreated area.
1 ml of Composition 5a, was distributed on the tile. […] 1 ml of Composition 6a was distributed on the tile. […] 1 ml of Composition 7a was distributed on the tile.
1 ml of Composition 3 was distributed on the tile. […] 1 ml of Composition 9a was distributed on the tile. […] 1 ml of Composition 11a was distributed on a tile. […] 1 ml of Composition 12a was distributed on a tile.
1 ml of Composition 3 was distributed on the tile. […] 1 ml of Composition 17a was distributed on a tile. […] 1 ml of Composition 18a was distributed on a tile. […] Each experiment (A-C) was conducted in duplicate.
1 ml of Composition 23a was distributed on the tile. […] 1 ml of Composition 20a was distributed on a tile. […] Each experiment (A-B) was conducted in duplicate.
1 ml of Composition 3 was distributed on the tile. […] 1 ml of Composition 25a was distributed on a tile. […] Each experiment (A-B) was conducted in duplicate.
1 ml of Composition 23a was distributed on the tile. […] 1 ml of Composition 27a was distributed on a tile. […] Each experiment (A-B) was conducted in duplicate.
1 ml of Composition 26a was distributed on a tile. […] 1 ml of Composition 26b was distributed on a tile. […] 1 ml of Composition 26c was distributed on a tile.
1 ml of Composition 22a was distributed on a tile. […] 1 ml of Composition 22b was distributed on a tile. […] 1 ml of Composition 22c was distributed on a tile.
1 ml of Composition 23a was distributed on the tile. […] 1 ml of Composition 44a was distributed on a tile.
1 ml of Composition 33 was distributed on a tile. […] 1 ml of Composition 33 was distributed on a tile. […] At the end of the 30 minutes, the flies were transferred to an untreated area.
1 ml of Composition 1 was distributed on the tile. […] 1 ml of Composition 34 was distributed on a tile. […] 1 ml of Composition 34 was distributed on a tile. […] At the end of the 30 minutes, the flies were transferred to an untreated area.
1 ml of Composition 3 was distributed on the tile. […] 1 ml of Composition 31a was distributed on a tile. […] 1 ml of Composition 31b was distributed on a tile. […] 1 ml of Composition 31b was distributed on a tile. […] At the end of the 30 minutes, the flies were transferred to an untreated area. […] 1 ml of Composition 38a was distributed on a tile. […] 1 ml of Composition 38a was distributed on a tile. […] At the end of the 30 minutes, the flies were transferred to an untreated area.
G) According to the invention. 1 ml of Composition 40a was distributed on a tile. […] Subsequently, after waiting for the solvent to evaporate, 10 flies were placed on top of the treated til

[2] = tested on: Blatta orientalis; details: for Mortality %/time (h) (application): Table 37, Blatta orientalis, concentrations in mg/ml in label; for Mortality %: insects on treated tile
Protocol: Method: Contact test on non-porous tile measuring 400 cm^2 at a temperature of 28° C. Test duration: up to 72 hours after exposure of the insect to the insecticidal active substance.
(§1) Three tests were performed in parallel, A, B, and C, as follows: • A) Comparative. 1 ml of Composition 2 was applied to the tile. After waiting for the complete evaporation of the solvent, 10 cockroaches were placed on top of the treated tile, starting the test. • B) According to the invention. 1 ml of Composition 8b was distributed on the tile. After waiting for the complete evaporation of the solvent, 1 ml of Composition 2 was added to the same tile. Subsequently, after waiting for the solvent to evaporate, 10 cockroaches were placed on top of the treated tile, starting the test. • C) According to the invention. 1 ml of Composition 8b was distributed on a tile. After waiting for the complete evaporation of the solvent, 10 cockroaches were placed for 30 minutes on top of the treated tile. At the end of the 30 minutes, the cockroaches were transferred to an untreated area.
Method: Contact test on non-porous tile measuring 400 cm^2 at a temperature of 28° C. Test duration: up to 120 hours after exposure of the insect to the insecticidal active substance.
as §1, with “4a” for “2”, “8d” for “8b”, “After” for “Subsequently, after”
Six tests were performed in parallel, A, B, C, D, E and F, as follows: • A) Comparative. 1 ml of Composition 9b was distributed on the tile. After waiting for the complete evaporation of the solvent, 1 ml of Composition 4a was added to the same tile. Subsequently, after waiting for the solvent to evaporate, 10 cockroaches were placed on top of the treated tile, starting the test. • B) Comparative. 1 ml of Composition 9b was distributed on a tile. After waiting for the complete evaporation of the solvent, 10 cockroaches were placed for 30 minutes on top of the treated tile. At the end of the 30 minutes, the cockroaches were transferred to an untreated area. […] 1 ml of Composition 10b was distributed on the tile. After waiting for the complete evaporation of the solvent, 1 ml of Composition 4a was added to the same tile. Subsequently, after waiting for the solvent to evaporate, 10 cockroaches were placed on top of the treated tile, starting the test. • D) Comparative. 1 ml of Composition 10b was distributed on a tile. After waiting for the complete evaporation of the solvent, 10 cockroaches were placed for 30 minutes on top of the treated tile. At the end of the 30 minutes, the cockroaches were transferred to an untreated area. […] 1 ml of Composition 8d was distributed on the tile. After waiting for the complete evaporation of the solvent, 1 ml of Composition 4a was added to the same tile. Subsequently, after waiting for the solvent to evaporate, 10 cockroaches were placed on top of the treated tile, starting the test. • F) According to the invention. 1 ml of Composition 8d was distributed on a tile. After waiting for the complete evaporation of the solvent, 10 cockroaches were placed for 30 minutes on top of the treated tile. At the end of the 30 minutes, the cockroaches were transferred to an untreated area.

[3] = Musca domestica, single substance alone, 48 h, read-out: Mortality %/time (h)

`CCCCCCCCCCC(O)CO` (stereo not drawn) [1,2-dodecandiol] gave a mortality at 680 µg/mL [1, 3] of 0%.
`CCCCC(O)CO` (stereo not drawn) [1,2-hexandiol (0.84), 1,2-hexandiol] was tested, and the “Mortality %/time (h) (application)” value ([2]; 48 h) was 0/48 ^ %.
With `CCCCCCC(O)CO` (stereo not drawn) [1,2-octandiol] the mortality at 680 µg/mL [1, 3] was 0%.
In the case of `OCCCCCCCCO` [1,8-octandiol], the mortality at 680 µg/mL [1, 3] is reported as 0%.
Compound `COP(=O)(OC)SCn1c(=O)oc2cc(Cl)cnc21` [Azamethiphos] has a mortality at 6900 µg/mL ([1]; Musca domestica, 48 h, read-out: Mortality %/time (h)) of 23%.
Compound `CC1(C)C(C=C(Cl)Cl)C1C(=O)OC(C#N)c1cccc(Oc2ccccc2)c1` (stereo not drawn) [Composition 3, Cypermethrin, reference compound] has a Mortality % ([1]; Example 3, 26° C, 24 h) of 10%, a Mortality % ([1]; Example 3, 26° C, 48 h) of 20% and a Mortality % ([1]; Example 9, 21° C, 24 h) of 5%. For the same compound, the Mortality % ([1]; Example 9, 21° C, 48 h) was 16%, the Mortality % ([1]; Example 12, 21° C, 24 h) was 5% and the Mortality % ([1]; Example 12, 21° C, 48 h) was 16%. It also gave a Mortality % ([1]; Example 17, 21° C, 48 h) of 16%, a Mortality % ([1]; Example 29, 25° C, 24 h) of 10% and a Mortality % ([1]; Example 29, 25° C, 48 h) of 16%.
In the case of `CC1(C)C(C=C(Cl)Cl)C1C(=O)OC(C#N)c1cccc(Oc2ccccc2)c1` (stereo not drawn) [Composition 4a, Cypermethrin], the Mortality % ([2]; Example 4, 28° C, 24 h) is reported as 30%, the Mortality % ([2]; Example 4, 28° C, 48 h) is reported as 35% and the Mortality % ([2]; Example 4, 28° C, 120 h) is reported as 35%. For the same compound, the Mortality % ([2]; Example 10, 21° C, 24 h) was 20%, the Mortality % ([2]; Example 10, 21° C, 48 h) was 35% and the Mortality % ([2]; Example 11, 21° C, 48 h) was 20%. The Mortality % ([2]; Example 11, 21° C, 72 h) was 25%, the Mortality % ([2]; Example 11, 21° C, 96 h) was 33% and the Mortality % ([2]; Example 13, 21° C, 48 h) was 60%. For the same compound, the Mortality % ([2]; Example 13, 21° C, 72 h) was 62%, the Mortality % ([2]; Example 20, 21° C, 24 h) was 5% and the Mortality % ([2]; Example 20, 21° C, 72 h) was 25%. The Mortality % ([2]; Example 32, 25° C, 24 h) was 10%, the Mortality % ([2]; Example 32, 25° C, 48 h) was 35% and the Mortality % ([2]; Example 32, 25° C, 72 h) was 45%. For the same compound, the “Mortality %/time (h) (application)” value ([2]; 48 h, listed as Cypermethrin (0.20)) was 35/48 ^ % and 20/48 ^ %.
In the case of `CCCCC(CC)COC(=O)OCC(CC)CCCC` (stereo not drawn) [Composition 17b, Bis(2-ethyl-hexyl)-carbonate], the “Mortality %/time (h) (application)” value ([2]; 48 h) is reported as 0/48 ^ %.
For `CCCCCCCCOC(=O)OCCCCCCCC` [Composition 18b, Dioctyl carbonate], the “Mortality %/time (h) (application)” value ([2]; 48 h) was 0/48 ^ %.
Work on `COP(=O)(OC)SCn1c(=O)oc2cc(Cl)cnc21` [Composition 23a, Azamethiphos, reference compound] yielded a Mortality % ([1]; Example 14, 21° C, 48 h) of 23%, a Mortality % ([1]; Example 18, 21° C, 24 h) of 23% and a Mortality % ([1]; Example 24, 25° C, 24 h) of 10%. It also gave a Mortality % ([1]; Example 30, 25° C, 24 h) of 10% and a Mortality % ([1]; Example 30, 25° C, 48 h) of 23%.
In the case of `CC1(C)C(C=C(Cl)Cl)C1C(=O)OC(C#N)c1cccc(Oc2ccccc2)c1` (stereo not drawn) [Composition 46a, Cypermethrin, reference compound], the Mortality % ([1]; Example 35, 25° C, 24 h) is reported as 5% and the Mortality % ([1]; Example 35, 25° C, 48 h) is reported as 10%.
Work on `CC1(C)C(C=C(Cl)Cl)C1C(=O)OC(C#N)c1cccc(Oc2ccccc2)c1` (stereo not drawn) [Cypermethrin] yielded a mortality at 230 µg/mL ([1]; Musca domestica, single substance alone, 0.23 mg/ml, 48 h, read-out: Mortality %/time (h)) of 10% and a mortality at 450 µg/mL ([1]; Musca domestica, single substance alone, 0.45 mg/ml, 48 h, read-out: Mortality %/time (h)) of 16%.
Work on `CCCCCCCCCCCCO` [Dodecanol] yielded a mortality at 680 µg/mL [1, 3] of 4%.
“Spinosad [Composition 43, reference compound]” showed a Mortality % ([1]; Example 19, 25° C, 24 h) of 27%, a Mortality % ([1]; Example 23, 25° C, 24 h) of 27% and a Mortality % ([1]; Example 27, 25° C, 24 h) of 27%.
